Legend:
Format in all cases: in vivo
[1] = tested on: barnyardgrass (Echinochloa crus-galli, ECHCG); experiment: Post-emerge test, greenhouse herbicide activity screening; settings: post-emerge, 14 days after application, rating scale 0-100
Procedure, shortened: (§1)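 Each test used a mechanized track sprayer delivering 187 l/ha of acetone solution at 15–1000 g ai/ha. Post-emerge foliage at 2–3 leaves was treated with added 0.25% v/v non-ionic surfactant and bottom-watered only. Injury was assessed on day 14, where 100 means total kill.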

[2] = tested on: lambsquarters (Chenopodium album, CHEAL); experiment: as above; settings: post-emerge, 14 days after application, rating scale 0-100
Procedure, shortened: as §1

[3] = tested on: velvetleaf (Abutilon theophrasti, ABUTH); experiment: as above; settings: post-emerge, 14 days after application, rating scale 0-100
Procedure, shortened: as §1

[4] = tested on: johnsongrass (Sorghum halepense, SORHA); experiment: as above; settings: post-emerge, 14 days after application, rating scale 0-100
Procedure, shortened: as §1

[5] = tested on: ivyleaf morningglory (Ipomoea hederacea, IPOHE); experiment: as above; settings: post-emerge, 14 days after application, rating scale 0-100
Procedure, shortened: as §1

[6] = tested on: green foxtail (Setaria viridis, SETVI); experiment: as above; settings: post-emerge, 14 days after application, rating scale 0-100
Procedure, shortened: as §1

[7] = tested on: redroot pigweed (Amaranthus retroflexus, AMARE); experiment: as above; settings: post-emerge, 14 days after application, rating scale 0-100
Procedure, shortened: as §1

[8] = tested on: sicklepod (Cassia obtusifolia, CASOB); experiment: as above; settings: post-emerge, 14 days after application, rating scale 0-100
Procedure, shortened: as §1

[9] = tested on: large crabgrass (Digitaria sanguinalis, DIGSA); experiment: as above; settings: post-emerge, 14 days after application, rating scale 0-100
Procedure, shortened: as §1

[10] = tested on: upland rice (Oryza sp., var. Tebonnet, RICE); experiment: Pre-emerge test, crop safety; settings: rated 14 days after application, 0 = no damage, 100 = complete death
Procedure, shortened: (§2)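 Visual ratings on a 0-100 scale (0 no damage, 100 all plants dead) were taken at 14 days after treatment. Rates of 15-1000 g ai/ha in acetone, 187 l/ha, were sprayed onto soil one day after planting (pre-emerge) or onto 2-3 leaf plants with 0.25% v/v surfactant (post-emerge).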

[11] = tested on: field corn (Zea mays L., var. Dekalb 535, CORN); experiment: Pre-emerge test, crop safety; settings: rated 14 days after application, 0 = no damage, 100 = complete death
Procedure, shortened: as §2

[12] = tested on: upland rice (Oryza sp., var. Tebonnet, RICE); experiment: Post-emerge test, crop safety; settings: post-emerge, 14 days after application, rating scale 0-100
Procedure, shortened: (§3)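 Compounds in acetone were track-sprayed at 187 l/ha, 15–1000 g ai/ha, onto sandy loam pots. Pre-emerge seeds were sown one day before spraying, with surface watering afterwards. Post-emerge plants were at the 2–3 leaf stage and sprayed with 0.25% v/v non-ionic surfactant. Injury was rated 0–100 at 14 days.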

[13] = tested on: field corn (Zea mays L., var. Dekalb 535, CORN); experiment: Post-emerge test, crop safety; settings: post-emerge, 14 days after application, rating scale 0-100
Procedure, shortened: as §3

[14] = tested on: redroot pigweed (Amaranthus retroflexus, AMARE); experiment: Pre-emerge test, greenhouse herbicide activity screening; settings: rated 14 days after application, 0 = no damage, 100 = complete death
Procedure, shortened: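 Herbicidal damage is scored 0 (none) to 100 (complete plant death) two weeks after a simulated field spray. Rates span 15–1000 g ai/ha, delivered in acetone at 187 l/ha. For post-emergence treatments, plants have 2–3 leaves and the spray carries 0.25% v/v non-ionic surfactant.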

[15] = tested on: barnyardgrass (Echinochloa crus-galli, ECHCG); experiment: as above; settings: rated 14 days after application, 0 = no damage, 100 = complete death
Procedure, shortened: as §3

[16] = tested on: lambsquarters (Chenopodium album, CHEAL); experiment: as above; settings: rated 14 days after application, 0 = no damage, 100 = complete death
Procedure, shortened: as §3

[17] = tested on: velvetleaf (Abutilon theophrasti, ABUTH); experiment: as above; settings: rated 14 days after application, 0 = no damage, 100 = complete death
Procedure, shortened: as §3

[18] = tested on: johnsongrass (Sorghum halepense, SORHA); experiment: as above; settings: rated 14 days after application, 0 = no damage, 100 = complete death
Procedure, shortened: as §3

[19] = tested on: ivyleaf morningglory (Ipomoea hederacea, IPOHE); experiment: as above; settings: rated 14 days after application, 0 = no damage, 100 = complete death
Procedure, shortened: as §3

[20] = tested on: green foxtail (Setaria viridis, SETVI); experiment: as above; settings: rated 14 days after application, 0 = no damage, 100 = complete death
Procedure, shortened: as §3

[21] = tested on: sicklepod (Cassia obtusifolia, CASOB); experiment: as above; settings: rated 14 days after application, 0 = no damage, 100 = complete death
Procedure, shortened: as §3

[22] = tested on: large crabgrass (Digitaria sanguinalis, DIGSA); experiment: as above; settings: rated 14 days after application, 0 = no damage, 100 = complete death
Procedure, shortened: as §3

Cn1c(C(F)(F)F)cc(=O)n(-c2c(F)cc(Cl)c(O)c2NC(=O)c2ncccn2)c1=O [2-102]
30: phytotoxicity rating ABUTH ([3]; 250 g ai/ha) | Pre-emerge Herbicidal Activity, phytotoxicity rating (0-100), AMARE ([14]; 63 g ai/ha)
0: phytotoxicity rating ECHCG ([1]; 63 g ai/ha) | phytotoxicity rating ECHCG ([1]; 250 g ai/ha) | phytotoxicity rating CHEAL ([2]; 63 g ai/ha) | phytotoxicity rating CHEAL ([2]; 250 g ai/ha) | phytotoxicity rating ABUTH ([3]; 63 g ai/ha) | phytotoxicity rating SORHA ([4]; 63 g ai/ha) | phytotoxicity rating SORHA ([4]; 250 g ai/ha) | phytotoxicity rating IPOHE ([5]; 63 g ai/ha) | phytotoxicity rating IPOHE ([5]; 250 g ai/ha) | phytotoxicity rating SETVI ([6]; 63 g ai/ha) | phytotoxicity rating SETVI ([6]; 250 g ai/ha) | phytotoxicity rating AMARE ([7]; 63 g ai/ha) | phytotoxicity rating CASOB ([8]; 63 g ai/ha) | phytotoxicity rating CASOB ([8]; 250 g ai/ha) | phytotoxicity rating DIGSA ([9]; 63 g ai/ha) | phytotoxicity rating DIGSA ([9]; 250 g ai/ha) | Pre-emerge phytotoxicity rating (0-100), crop damage, RICE ([10]; 63 g ai/ha) | Pre-emerge phytotoxicity rating (0-100), crop damage, RICE ([10]; 250 g ai/ha) | Pre-emerge phytotoxicity rating (0-100), crop damage, CORN ([11]; 63 g ai/ha) | Pre-emerge phytotoxicity rating (0-100), crop damage, CORN ([11]; 250 g ai/ha) | phytotoxicity rating RICE ([12]; 63 g ai/ha) | phytotoxicity rating RICE ([12]; 250 g ai/ha) | phytotoxicity rating CORN ([13]; 63 g ai/ha) | phytotoxicity rating CORN ([13]; 250 g ai/ha) | Pre-emerge Herbicidal Activity, phytotoxicity rating (0-100), AMARE ([14]; 250 g ai/ha) | Pre-emerge Herbicidal Activity, phytotoxicity rating (0-100), ECHCG ([15]; 63 g ai/ha) | Pre-emerge Herbicidal Activity, phytotoxicity rating (0-100), ECHCG ([15]; 250 g ai/ha) | Pre-emerge Herbicidal Activity, phytotoxicity rating (0-100), CHEAL ([16]; 63 g ai/ha) | Pre-emerge Herbicidal Activity, phytotoxicity rating (0-100), CHEAL ([16]; 250 g ai/ha) | Pre-emerge Herbicidal Activity, phytotoxicity rating (0-100), ABUTH ([17]; 63 g ai/ha) | Pre-emerge Herbicidal Activity, phytotoxicity rating (0-100), ABUTH ([17]; 250 g ai/ha) | Pre-emerge Herbicidal Activity, phytotoxicity rating (0-100), SORHA ([18]; 63 g ai/ha) | Pre-emerge Herbicidal Activity, phytotoxicity rating (0-100), SORHA ([18]; 250 g ai/ha) | Pre-emerge Herbicidal Activity, phytotoxicity rating (0-100), IPOHE ([19]; 63 g ai/ha) | Pre-emerge Herbicidal Activity, phytotoxicity rating (0-100), IPOHE ([19]; 250 g ai/ha) | Pre-emerge Herbicidal Activity, phytotoxicity rating (0-100), SETVI ([20]; 63 g ai/ha) | Pre-emerge Herbicidal Activity, phytotoxicity rating (0-100), SETVI ([20]; 250 g ai/ha) | Pre-emerge Herbicidal Activity, phytotoxicity rating (0-100), CASOB ([21]; 63 g ai/ha) | Pre-emerge Herbicidal Activity, phytotoxicity rating (0-100), CASOB ([21]; 250 g ai/ha) | Pre-emerge Herbicidal Activity, phytotoxicity rating (0-100), DIGSA ([22]; 63 g ai/ha) | Pre-emerge Herbicidal Activity, phytotoxicity rating (0-100), DIGSA ([22]; 250 g ai/ha)
40: phytotoxicity rating AMARE ([7]; 250 g ai/ha)

Source: US6355799B1, “Substituted benzene compounds, process for their preparation, and herbicidal and defoliant compositions containing them” (ISK Americas Incorporated, priority 1997, dated 2002)
